The text below walks through data of patent US20050090529A1, “3,5 Disubstituted indazole compounds with nitrogen-bearing 5-membered heterocycles, pharmaceutical compositions, and methods for mediating or inhibiting cell proliferation” (PFIZER INC, priority 2003, published 2005).

One data set concerns the target T1, CDK2/Cyclin A (Homo sapiens, UniProt P24941).
T1 construct: made in house; host or cells: CDK2: insect cells (baculovirus); cyclin A: E. coli
The data set is described as follows: Inhibition of CDK2/Cyclin A retinoblastoma kinase activity (apparent Ki). Format: biochemical. The protocol:
Cyclin-dependent kinase activity was measured by quantifying the enzyme-catalyzed, time-dependent incorporation of radioactive phosphate from [^32P]ATP or [^33P]ATP into a protein substrate. […] Reactions were initiated with enzyme, incubated at 30° C., and terminated after 20 minutes by the addition of ethylenediaminetetraacetic acid (EDTA) to 250 mM. […] Radioactivity was quantified by exposing the dried membranes to a phosphorimager.
Apparent Ki values were measured by assaying enzyme activity in the presence of different inhibitor compound concentrations and subtracting the background radioactivity measured in the absence of enzyme. Inhibition data were fit to an equation for competitive inhibition using Kaleidagraph (Synergy Software), or were fit to an equation for competitive tight-binding inhibition using the software KineTic (BioKin, Ltd.).
A complex of CDK2 and proteolyzed cyclin A was prepared and purified by gel filtration. […] Ki values were measured as described above.

A short description of data set [1]: Measurement of kinetic solubility. The note with it: pH 6.5, aqueous buffer, kinetic from dmso stock. As to the method:
Kinetic solubility was determined with a […] stock solution from the compound(s) of interest. […] Samples and standards were then centrifuged and an aliquot was removed for HPLC analysis. Samples and standards were analyzed by HPLC and a final concentration for the sample was determined based on a one-point calibration curve from the corresponding standard. Results were reported as μg's/mL.

Converted amounts (≈) assume the structure as drawn. Read-outs that look alike come from different tables or passages of the source. A value given as a limit tells only on which side of the number the result lay.

Regarding `CCNCc1cncc(-c2ccc3[nH]nc(-c4ncc(C(=O)N5CC=C(c6ccccc6)CC5)[nH]4)c3c2)c1C` [Example 67, N-{[4-methyl-5-(3-{5-[(4-phenyl-3,6-dihydropyridin-1(2H)-yl)carbonyl]-1H-imidazol-2-yl}-1H-indazol-5-yl)pyridin-3-yl]methyl}ethanamine], at CDK2/Cyclin A (read-out: CDK2 Ki), the Ki was less than 0.05 µM. For the same compound, the solubility in data set [1] (100 mM sodium phosphate buffer) was in the range of 20 to 120 µg/mL (≈ 38.6 to 232 µM).

For `CCNCc1cncc(-c2ccc3[nH]nc(-c4nc(-c5ccccc5)c(C)[nH]4)c3c2)c1C` [Example 29, Ethyl-{4-methyl-5-[3-(5-methyl-4-phenyl-1H-imidazol-2-yl)-1H-indazol-5-yl]-pyridin-3-ylmethyl}-amine], the Ki on CDK2/Cyclin A (read-out: CDK2 Ki) is less than 0.05 µM. Also, the solubility in data set [1] (100 mM sodium phosphate buffer) was 20 to 120 µg/mL (≈ 47.3 to 284 µM).

In the case of `CCNCc1cncc(-c2ccc3[nH]nc(-c4ncc(C(=O)N5CCN(c6ccc(F)cc6F)CC5)[nH]4)c3c2)c1C` [Example 69, N-({5-[3-(5-{[4-(2,4-difluorophenyl)piperazin-1-yl]carbonyl}-1H-imidazol-2-yl)-1H-indazol-5-yl]-4-methylpyridin-3-yl}methyl)ethanamine], the Ki on CDK2/Cyclin A (read-out: CDK2 Ki) is less than 0.05 µM. The compound further gave a solubility in data set [1] (100 mM sodium phosphate buffer) of 20 to 120 µg/mL (≈ 35.9 to 216 µM).

`CCNCc1cncc(-c2ccc3[nH]nc(-c4nc(C(=O)NCCOC)c[nH]4)c3c2)c1C` [Example 65, 2-(5-{5-[(ethylamino)methyl]-4-methylpyridin-3-yl}-1H-indazol-3-yl)-N-(2-methoxyethyl)-1H-imidazole-5-carboxamide]: the Ki at CDK2/Cyclin A was less than 0.05 µM. In data set [1] (100 mM sodium phosphate buffer), this compound showed a solubility greater than 120 µg/mL.

With `CCNCc1cncc(-c2ccc3[nH]nc(-c4nc(-c5ccccc5)c(C(=O)NCC(C)C)[nH]4)c3c2)c1C` [Example 7, 2-[5-(5-Ethylaminomethyl-4-methyl-pyridin-3-yl)-1H-indazol-3-yl]-5-phenyl-3H-imidazole-4-carboxylic acid isobutyl-amide], on CDK2/Cyclin A (read-out: CDK2 Ki), the Ki lay in the range of 0.05 to 0.2 µM. The solubility in data set [1] (100 mM sodium phosphate buffer) was in the range of 20 to 120 µg/mL (≈ 39.4 to 236 µM).

As for `CCNCc1cncc(-c2ccc3[nH]nc(-c4nc(C)c(C)[nH]4)c3c2)c1C` [Example 24, {5-[3-(4,5-Dimethyl-1H-imidazol-2-yl)-1H-indazol-5-yl]-4-methyl-pyridin-3-ylmethyl}-ethyl-amine], the Ki on CDK2/Cyclin A (read-out: CDK2 Ki) is less than 0.05 µM. In data set [1] (100 mM sodium phosphate buffer), this compound gave a solubility greater than 120 µg/mL.

Take `CCNCc1cncc(-c2ccc3[nH]nc(-c4nc(CC(C)C)c(C)[nH]4)c3c2)c1C` [Example 20, Ethyl-{5-[3-(4-isobutyl-5-methyl-1H-imidazol-2-yl)-1H-indazol-5-yl]-4-methyl-pyridin-3-ylmethyl}-amine]: on CDK2/Cyclin A (read-out: CDK2 Ki), the Ki was less than 0.05 µM. The same compound displayed a solubility in data set [1] (100 mM sodium phosphate buffer) of 20 to 120 µg/mL (≈ 49.7 to 298 µM).

Regarding `CCNCc1cncc(-c2ccc3[nH]nc(-c4ncc(C(=O)N5CCN(Cc6ccccc6)CC5)[nH]4)c3c2)c1C` [Example 66, N-{[5-(3-{5-[(4-benzylpiperazin-1-yl)carbonyl]-1H-imidazol-2-yl}-1H-indazol-5-yl)-4-methylpyridin-3-yl]methyl}ethanamine], the Ki on CDK2/Cyclin A (read-out: CDK2 Ki) was less than 0.05 µM. This compound yielded a solubility in data set [1] greater than 120 µg/mL.

As for `CCNCc1cncc(-c2ccc3[nH]nc(-c4nc(-c5cccc(OC)c5)c[nH]4)c3c2)c1C` [Example 35, Ethyl-(5-{3-[4-(3-methoxy-phenyl)-1H-imidazol-2-yl]-1H-indazol-5-yl}-4-methyl-pyridin-3-ylmethyl)-amine], the Ki at CDK2/Cyclin A (read-out: CDK2 Ki) was less than 0.05 µM. In addition, the solubility in data set [1] (100 mM sodium phosphate buffer) was in the range of 20 to 120 µg/mL (≈ 45.6 to 274 µM).

For the compound `CCNCc1cncc(-c2ccc3[nH]nc(-c4nc(-c5cccc(C(F)(F)F)c5)c(C)[nH]4)c3c2)c1C` [Example 27, Ethyl-(4-methyl-5-{3-[5-methyl-4-(3-trifluoromethyl-phenyl)-1H-imidazol-2-yl]-1H-indazol-5-yl}-pyridin-3-ylmethyl)-amine], the Ki at CDK2/Cyclin A (read-out: CDK2 Ki) is less than 0.05 µM. This compound also returned a solubility in data set [1] (100 mM sodium phosphate buffer) of less than 20 µg/mL.

For the compound `CCNCc1cncc(-c2ccc3[nH]nc(-c4nc(CC)c(C)[nH]4)c3c2)c1C` [Example 23, Ethyl-{5-[3-(4-ethyl-5-methyl-1H-imidazol-2-yl)-1H-indazol-5-yl]-4-methyl-pyridin-3-ylmethyl}-amine], the Ki on CDK2/Cyclin A (read-out: CDK2 Ki) is less than 0.05 µM. In addition, the solubility in data set [1] (100 mM sodium phosphate buffer) is greater than 120 µg/mL.

In the case of `CCNCc1cncc(-c2ccc3[nH]nc(-c4nc(C(=O)N5CCCCCC5)c[nH]4)c3c2)c1C` [Example 74, N-[(5-{3-[5-(azepan-1-ylcarbonyl)-1H-imidazol-2-yl]-1H-indazol-5-yl}-4-methylpyridin-3-yl)methyl]ethanamine], the Ki at CDK2/Cyclin A (read-out: CDK2 Ki) was less than 0.05 µM. The solubility in data set [1] (100 mM sodium phosphate buffer) is greater than 120 µg/mL.

As to `CCNCc1cncc(-c2ccc3[nH]nc(-c4nc(C(=O)NC(C)C)c[nH]4)c3c2)c1C` [Example 64, 2-(5-{5-[(ethylamino)methyl]-4-methylpyridin-3-yl}-1H-indazol-3-yl)-N-isopropyl-1H-imidazole-5-carboxamide], at CDK2/Cyclin A (read-out: CDK2 Ki), the Ki is less than 0.05 µM. In addition, the solubility in data set [1] (100 mM sodium phosphate buffer) was greater than 120 µg/mL.

As to `CCNCc1cncc(-c2ccc3[nH]nc(-c4ncc(C(=O)N5CCN(Cc6ccccn6)CC5)[nH]4)c3c2)c1C` [Example 83, N-({4-methyl-5-[3-(5-{[4-(pyridin-2-ylmethyl)piperazin-1-yl]carbonyl}-1H-imidazol-2-yl)-1H-indazol-5-yl]pyridin-3-yl}methyl)ethanamine], the Ki on CDK2/Cyclin A (read-out: CDK2 Ki) is less than 0.05 µM. Moreover, the solubility in data set [1] (100 mM sodium phosphate buffer) is greater than 120 µg/mL.

Regarding `CCNCc1cncc(-c2ccc3[nH]nc(-c4nc(-c5ccccc5)c(C(=O)N5CCC[C@@H]5COC)[nH]4)c3c2)c1C` [Example 15, {2-[5-(5-Ethylaminomethyl-4-methyl-pyridin-3-yl)-1H-indazol-3-yl]-5-phenyl-3H-imidazol-4-yl}-(2-methoxymethyl-pyrrolidin-1-yl)-methanone], on CDK2/Cyclin A (read-out: CDK2 Ki), the Ki was greater than 0.2 µM. Further, in data set [1] (100 mM sodium phosphate buffer), the solubility is greater than 120 µg/mL.

In the case of `CCNCc1cncc(-c2ccc3[nH]nc(-c4nc(-c5ccccc5)c(C(=O)N5CCOCC5)[nH]4)c3c2)c1C` [Example 10, {2-[5-(5-Ethylaminomethyl-4-methyl-pyridin-3-yl)-1H-indazol-3-yl]-5-phenyl-3H-imidazol-4-yl}-morpholin-4-yl-methanone], the Ki on CDK2/Cyclin A (read-out: CDK2 Ki) is greater than 0.2 µM. This compound also came in with a solubility in data set [1] (100 mM sodium phosphate buffer) of 20 to 120 µg/mL (≈ 38.3 to 230 µM).

As for `CCNCc1cncc(-c2ccc3[nH]nc(C(N)=O)c3c2)c1C` [Example 97, 5-(5-Ethylaminomethyl-4-methyl-pyridin-3-yl)-1H-indazole-3-carboxylic acid amide], the Ki on CDK2/Cyclin A (read-out: CDK2 Ki) lay within 0.05 to 0.2 µM. This compound also had a solubility in data set [1] (100 mM sodium phosphate buffer) greater than 120 µg/mL.

For the compound `CCNCc1cncc(-c2ccc3[nH]nc(-c4nc(-c5cc(Cl)cc(Cl)c5)c(C)[nH]4)c3c2)c1C` [Example 26, (5-{3-[4-(3,5-Dichloro-phenyl)-5-methyl-1H-imidazol-2-yl]-1H-indazol-5-yl}-4-methyl-pyridin-3-ylmethyl)-ethyl-amine], the Ki on CDK2/Cyclin A (read-out: CDK2 Ki) is less than 0.05 µM. Moreover, the solubility in data set [1] (100 mM sodium phosphate buffer) was less than 20 µg/mL.

Consider `CCNCc1cncc(-c2ccc3[nH]nc(-c4cnco4)c3c2)c1C` [Example 87, N-({4-methyl-5-[3-(1,3-oxazol-5-yl)-1H-indazol-5-yl]pyridin-3-yl}methyl)ethanamine], for which, on CDK2/Cyclin A (read-out: CDK2 Ki), the Ki is 0.05 to 0.2 µM. This compound also came in with a solubility in data set [1] (100 mM sodium phosphate buffer) greater than 120 µg/mL.

Take `CCNCc1cncc(-c2ccc3[nH]nc(-c4nc(C(=O)NC5CN6CCC5CC6)c[nH]4)c3c2)c1C` (stereo in doubt) [Example 73, N-[(3S)-1-azabicyclo[2.2.2]oct-3-yl]-2-(5-{5-[(ethylamino)methyl]-4-methylpyridin-3-yl}-1H-indazol-3-yl)-1H-imidazole-5-carboxamide]: the Ki on CDK2/Cyclin A (read-out: CDK2 Ki) lay within 0.05 to 0.2 µM. Further, the solubility in data set [1] (100 mM sodium phosphate buffer) is greater than 120 µg/mL.

In the case of `CCNCc1cncc(-c2ccc3[nH]nc(-c4nc(C(=O)O)c[nH]4)c3c2)c1C` [Example 86, 2-(5-{5-[(ethylamino)methyl]-4-methylpyridin-3-yl}-1H-indazol-3-yl)-1H-imidazole-5-carboxylic acid], the Ki at CDK2/Cyclin A (read-out: CDK2 Ki) lay within 0.05 to 0.2 µM. The compound further had a solubility in data set [1] (100 mM sodium phosphate buffer) greater than 120 µg/mL.

Consider `CCCc1nc(-c2n[nH]c3ccc(-c4cncc(CNCC)c4C)cc23)[nH]c1C` [Example 19, Ethyl-{4-methyl-5-[3-(5-methyl-4-propyl-1H-imidazol-2-yl)-1H-indazol-5-yl]-pyridin-3-ylmethyl}-amine], for which the Ki on CDK2/Cyclin A (read-out: CDK2 Ki) is less than 0.05 µM. Besides, the solubility in data set [1] (100 mM sodium phosphate buffer) lay in the range of 20 to 120 µg/mL (≈ 51.5 to 309 µM).

As to `CCNCc1cncc(-c2ccc3[nH]nc(-c4nc(-c5ccc(C(F)(F)F)cc5)c(C)[nH]4)c3c2)c1C` [Example 28, Ethyl-(4-methyl-5-{3-[5-methyl-4-(4-trifluoromethyl-phenyl)-1H-imidazol-2-yl]-1H-indazol-5-yl}-pyridin-3-ylmethyl)-amine], on CDK2/Cyclin A (read-out: CDK2 Ki), the Ki is less than 0.05 µM. The same compound had a solubility in data set [1] (100 mM sodium phosphate buffer) of 20 to 120 µg/mL (≈ 40.8 to 245 µM).

On to `c1ncc(-c2n[nH]c3ccc(-c4cncc5[nH]ccc45)cc23)[nH]1` [Example 95, 3-(3H-Imidazol-4-yl)-5-(1H-pyrrolo[2,3-c]pyridin-4-yl)-1H-indazole], for which the Ki on CDK2/Cyclin A (read-out: CDK2 Ki) is less than 0.05 µM. The solubility in data set [1] (100 mM sodium phosphate buffer) is 20 to 120 µg/mL (≈ 66.6 to 400 µM).

On to `CCNCc1cncc(-c2ccc3[nH]nc(-c4nc(C(=O)N5CCCCC5)c[nH]4)c3c2)c1C` [Example 62, N-[(4-methyl-5-{3-[5-(piperidin-1-ylcarbonyl)-1H-imidazol-2-yl]-1H-indazol-5-yl}pyridin-3-yl)methyl]ethanamine], for which, at CDK2/Cyclin A (read-out: CDK2 Ki), the Ki was less than 0.05 µM. For the same compound, the solubility in data set [1] (100 mM sodium phosphate buffer) was greater than 120 µg/mL.

Regarding `CCNCc1cncc(-c2ccc3[nH]nc(-c4nc(C(=O)NC5CCNCC5)c[nH]4)c3c2)c1C` [Example 76, 2-(5-{5-[(ethylamino)methyl]-4-methylpyridin-3-yl}-1H-indazol-3-yl)-N-piperidin-4-yl-1H-imidazole-5-carboxamide], the Ki at CDK2/Cyclin A (read-out: CDK2 Ki) fell in the range of 0.05 to 0.2 µM. In data set [1] (100 mM sodium phosphate buffer), the solubility was greater than 120 µg/mL.
